# Target: NR2B-subtype NMDA receptors (Rattus norvegicus (Rat), UniProt P35439+Q00960)
# Test: Radioligand binding assay (3H Ro 25-6981 competition, forebrain membranes)
# Conditions: 3H Ro 25-6981 (4 nM), read-out: NR2B Binding Ki
# Method in brief: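 Rat forebrain membranes competed against [3H]Ro 25-6981 for 1 hr at room temperature, then filtered onto PEI-treated GF/B plates and counted by scintillation. CPM converted to % inhibition, concentration-response curves fitted, Ki derived from at least two experiments.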
# Sequence of NR2B-subtype NMDA receptors (Q00960 27-1482, other chains not shown): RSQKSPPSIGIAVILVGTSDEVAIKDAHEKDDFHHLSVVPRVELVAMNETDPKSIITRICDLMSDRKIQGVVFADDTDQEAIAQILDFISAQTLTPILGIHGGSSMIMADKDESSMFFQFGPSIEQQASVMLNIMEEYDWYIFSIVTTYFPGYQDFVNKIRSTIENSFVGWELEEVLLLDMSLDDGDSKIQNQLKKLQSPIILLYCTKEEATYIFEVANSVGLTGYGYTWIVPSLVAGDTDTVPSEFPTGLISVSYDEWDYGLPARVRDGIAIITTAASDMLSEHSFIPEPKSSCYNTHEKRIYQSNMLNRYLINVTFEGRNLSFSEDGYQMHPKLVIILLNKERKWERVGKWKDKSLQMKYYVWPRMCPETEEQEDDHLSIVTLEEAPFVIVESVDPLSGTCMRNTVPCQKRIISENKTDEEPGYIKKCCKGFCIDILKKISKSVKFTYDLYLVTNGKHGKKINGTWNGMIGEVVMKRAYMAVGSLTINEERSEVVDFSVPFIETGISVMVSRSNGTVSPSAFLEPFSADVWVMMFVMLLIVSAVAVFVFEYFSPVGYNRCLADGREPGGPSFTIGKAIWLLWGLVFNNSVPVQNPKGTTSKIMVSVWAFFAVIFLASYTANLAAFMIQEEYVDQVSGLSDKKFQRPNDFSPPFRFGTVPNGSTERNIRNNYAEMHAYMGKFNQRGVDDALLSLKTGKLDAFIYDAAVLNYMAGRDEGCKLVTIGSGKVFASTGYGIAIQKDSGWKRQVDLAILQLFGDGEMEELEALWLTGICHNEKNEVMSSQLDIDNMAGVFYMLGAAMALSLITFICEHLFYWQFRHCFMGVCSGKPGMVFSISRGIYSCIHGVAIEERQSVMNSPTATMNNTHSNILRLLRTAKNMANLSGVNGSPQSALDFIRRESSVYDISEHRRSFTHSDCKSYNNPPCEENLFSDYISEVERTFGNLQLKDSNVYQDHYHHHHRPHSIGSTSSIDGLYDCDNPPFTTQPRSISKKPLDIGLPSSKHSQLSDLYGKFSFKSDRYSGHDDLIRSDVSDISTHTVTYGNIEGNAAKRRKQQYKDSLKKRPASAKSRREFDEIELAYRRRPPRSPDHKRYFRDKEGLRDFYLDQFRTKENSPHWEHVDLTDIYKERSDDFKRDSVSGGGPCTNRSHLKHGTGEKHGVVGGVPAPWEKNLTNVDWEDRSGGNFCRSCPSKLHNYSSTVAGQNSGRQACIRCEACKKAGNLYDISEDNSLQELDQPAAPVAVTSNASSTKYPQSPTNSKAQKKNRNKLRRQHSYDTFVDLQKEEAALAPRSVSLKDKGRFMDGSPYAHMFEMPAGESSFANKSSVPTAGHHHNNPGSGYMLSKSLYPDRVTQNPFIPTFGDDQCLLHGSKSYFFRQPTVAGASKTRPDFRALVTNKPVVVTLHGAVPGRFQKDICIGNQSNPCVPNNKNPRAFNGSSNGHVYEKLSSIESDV
row,SMILES,Ki [nM]
1,"Cc1ccc(CN2CCC(N3CCCC(c4ccc(O)cc4)C3)C2=O)cc1 (centres unmarked) [Example 3, 1-(4-Methylbenzyl)-3-(3-(4-hydroxyphenyl)piperidin-1-yl)pyrrolidin-2-one]",1320
2,"O=C1C(N2CCC(c3ccc(O)cc3)C(F)(F)C2)CCN1Cc1ccc(F)c(F)c1 (centres unmarked) [Example 97, 3-(3,3-Difluoro-4-(4-hydroxyphenyl)piperidin-1-yl)-1-(3,4-difluorobenzyl)pyrrolidin-2-one]",45
3,"O=C1C(N2CC[C@H](c3ccc(O)cc3)[C@@H](F)C2)CCN1Cc1ccc(OC(F)F)cc1 (stereo partly drawn) [Example 78, 1-(4-(Difluoromethoxy)benzyl)-3-((3R,4R)-3-fluoro-4-(4-hydroxyphenyl)piperidin-1-yl)pyrrolidin-2-one]",190
4,"Cc1ccc(CN2CC[C@@H](N3CC(c4ccc(O)cc4)C3)C2=O)cc1F [Example 21a, (R)-1-(3-Fluoro-4-methylbenzyl)-3-(3-(4-hydroxyphenyl)azetidin-1-yl)pyrrolidin-2-one]",37
5,"O=C1[C@@H](N2CC[C@H](c3ccc(O)cc3)[C@@H](F)C2)CCN1Cc1ccc(C(F)(F)F)cc1 [Example 87, (S)-3-((3R,4R)-3-Fluoro-4-(4-hydroxyphenyl)piperidin-1-yl)-1-(4-(trifluoromethyl)benzyl)-pyrrolidin-2-one]",540
6,"C[C@@H](c1ccccc1)N1CCC(N2CC[C@H](c3ccc(O)cc3)[C@@H](F)C2)C1=O (stereo partly drawn) [Example 84, 3-((3R,4R)-3-Fluoro-4-(4-hydroxyphenyl)piperidin-1-yl)-1-((S)-1-phenylethyl)pyrrolidin-2-one]",950
7,"C[C@@H](c1ccc(F)cc1)N1CC[C@H](N2CC[C@@H](c3ccc(O)cc3)[C@H](F)C2)C1=O [Example 50, P-3, (S)-3-((3S,4S)-3-Fluoro-4-(4-hydroxyphenyl)piperidin-1-yl)-1-((S)-1-(4-fluorophenyl)ethyl)pyrrolidin-2-one]",≥ 5000
8,"O=C1[C@@H](N2CCC(c3ccc(O)cc3)CC2)CCN1Cc1ccc(F)cc1 [Example 2a, (S)-1-(4-Fluorobenzyl)-3-(4-(4-hydroxyphenyl)-piperidin-1-yl)pyrrolidin-2-one]",740
9,"O=C1C(N2CCCC(c3ccc(O)cc3)CC2)CCN1Cc1ccccc1 (centres unmarked) [Example 37, 1-Benzyl-3-(4-(4-hydroxyphenyl)azepan-1-yl)pyrrolidin-2-one]",21
10,"O=C1C(N2CC[C@H](c3ccc(O)cc3)[C@@H](F)C2)CCN1Cc1ccc(F)c(F)c1 (stereo partly drawn) [Example 85, 1-(3,4-Difluorobenzyl)-3-((3R,4R)-3-fluoro-4-(4-hydroxyphenyl)-piperidin-1-yl)pyrrolidin-2-one]",23
11,"Cc1cccc(CN2CCC(N3CC[C@@H](c4ccc(O)cc4)[C@H](F)C3)C2=O)c1 (stereo partly drawn) [Example 60, 3-((3S,4S)-3-Fluoro-4-(4-hydroxyphenyl)piperidin-1-yl)-1-(3-methylbenzyl)pyrrolidin-2-one]",110
12,"O=C1[C@H](N2CC[C@@H](c3ccc(O)cc3)[C@H](F)C2)CCN1Cc1ccccc1 [Example 58, (R)-1-Benzyl-3-((3S,4S)-3-fluoro-4-(4-hydroxyphenyl)piperidin-1-yl)pyrrolidin-2-one]",8.7
13,"O=C1C(N2CCC(c3ccc(O)cc3)CC2)CCN1Cc1ccc(Cl)cc1 (racemic) [Example 17, 1-(4-Chlorobenzyl)-3-(4-(4-hydroxyphenyl)piperidin-1-yl)pyrrolidin-2-one]",1.6
14,"O=C1C(N2CCC(c3ccc(O)cc3)C(F)(F)C2)CCN1Cc1ccc(Cl)c(Cl)c1 (centres unmarked) [Example 98, 1-(3,4-Dichlorobenzyl)-3-(3,3-difluoro-4-(4-hydroxyphenyl)piperidin-1-yl)pyrrolidin-2-one]",230
15,"O=C1C(N2CC(c3ccc(O)cc3)C2)CCN1Cc1ccccc1 (centres unmarked) [Example 16, 1-Benzyl-3-(3-(4-hydroxyphenyl)azetidin-1-yl)pyrrolidin-2-one]",560
16,"O=C1C(N2CC[C@H](c3ccc(O)cc3)[C@@H](F)C2)CCN1c1ccc(OC(F)F)c(Cl)c1 (stereo partly drawn) [Example 79, 1-(3-Chloro-4-(difluoromethoxy)phenyl)-3-((3R,4R)-3-fluoro-4-(4-hydroxyphenyl)-piperidin-1-yl)pyrrolidin-2-one]",40
17,"C[C@@H](c1ccc(F)cc1)N1CCC(N2CCC(c3ccc(O)cc3)C(F)(F)C2)C1=O (single isomer, unassigned) [Example 56, P-1]",≥ 5000
18,"Cc1ccc(CN2CCC(N3CC(c4ccc(O)cc4)C3)C2=O)cc1 (centres unmarked) [Example 27, 3-(3-(4-Hydroxyphenyl)azetidin-1-yl)-1-(4-methylbenzyl)pyrrolidin-2-one]",20
19,"Cc1cccc(CN2CCC(N3CCC(c4ccc(O)cc4)C(F)(F)C3)C2=O)c1 (centres unmarked) [Example 104, 3-(3,3-Difluoro-4-(4-hydroxyphenyl)piperidin-1-yl)-1-(3-methylbenzyl)pyrrolidin-2-one]",130
20,"O=C1C(N2CCC(c3ccc(O)cc3)C(O)C2)CCN1Cc1ccc(F)cc1 (single isomer, unassigned) [Example 9a, 1-(4-Fluorobenzyl)-3-(3-hydroxy-4-(4-hydroxyphenyl)piperidin-1-yl)pyrrolidin-2-one]",180
21,"Cc1ccc(N2CC[C@@H](N3CC[C@H](c4ccc(O)cc4)[C@@H](F)C3)C2=O)cc1F [Example 49, P-2, (R)-3-((3R,4R)-3-fluoro-4-(4-hydroxyphenyl)piperidin-1-yl)-1-(3-fluoro-4-methylphenyl)pyrrolidin-2-one]",73
22,"O=C1[C@@H](N2CCC(c3ccc(O)cc3)C(F)(F)C2)CCN1Cc1ccc(Cl)c(F)c1 (stereo partly drawn) [Example 96, P-1, (3S)-1-(4-Chloro-3-fluorobenzyl)-3-(3,3-difluoro-4-(4-hydroxyphenyl)piperidin-1-yl)pyrrolidin-2-one]",490
23,"C[C@@H](c1ccccc1)N1CCC(N2CC[C@@H](c3ccc(O)cc3)[C@H](F)C2)C1=O (stereo partly drawn) [Example 68, 3-((3S,4S)-3-Fluoro-4-(4-hydroxyphenyl)piperidin-1-yl)-1-(1-phenylethyl)pyrrolidin-2-one]",710
24,"Cc1ccc(CN2CCCC(N3CCC(c4ccc(O)cc4)CC3)C2=O)cc1F (centres unmarked) [Example 39, 1′-(3-Fluoro-4-methylbenzyl)-4-(4-hydroxyphenyl)-[1,3′-bipiperidin]-2′-one]",300
25,"O=C1[C@@H](N2CC[C@H](c3ccc(O)cc3)[C@@H](F)C2)CCN1Cc1ccc(Cl)c(F)c1 [Example 82, (S)-1-(4-Chloro-3-fluorobenzyl)-3-((3R,4R)-3-fluoro-4-(4-hydroxyphenyl)piperidin-1-yl)pyrrolidin-2-one]",860
26,"O=C1[C@@H](N2CCC(c3ccc(O)cc3)C(F)(F)C2)CCN1Cc1ccccc1 (stereo partly drawn) [Example 102, P-1, (3S)-1-Benzyl-3-(3,3-difluoro-4-(4-hydroxyphenyl)piperidin-1-yl)pyrrolidin-2-one]",740

# Continued by falling Ki, values first:
row,Ki [nM],SMILES
1,990,"O=C1[C@@H](N2CCC(c3ccc(O)cc3)C(F)(F)C2)CCN1Cc1ccc(Cl)cc1 (stereo partly drawn) [Example 106, P-1, (3S)-1-(4-Chlorobenzyl)-3-(3,3-difluoro-4-(4-hydroxyphenyl)piperidin-1-yl)pyrrolidin-2-one]"
2,890,"C[C@@H](c1ccc(F)cc1)N1CC[C@@H](N2CC[C@H](c3ccc(O)cc3)[C@@H](F)C2)C1=O [Example 50, P-2, (R)-3-((3R,4R)-3-fluoro-4-(4-hydroxyphenyl)piperidin-1-yl)-1-((S)-1-(4-fluorophenyl)ethyl)pyrrolidin-2-one]"
3,100,"C[C@@H](c1ccccc1)N1CCC(N2CCC(c3ccc(O)cc3)CC2)C1=O (stereo partly drawn) [Example 32, 3-(4-(4-Hydroxyphenyl)piperidin-1-yl)-1-((S)-1-phenylethyl)pyrrolidin-2-one]"
4,81,"Cc1ccccc1CN1CCC(N2CC[C@@H](c3ccc(O)cc3)[C@H](F)C2)C1=O (stereo partly drawn) [Example 59, 3-((3S,4S)-3-Fluoro-4-(4-hydroxyphenyl)piperidin-1-yl)-1-(2-methylbenzyl)pyrrolidin-2-one]"
5,81,"Cc1ccccc1CN1CCC(N2CCC(c3ccc(O)cc3)C(F)(F)C2)C1=O (centres unmarked) [Example 103, 3-(3,3-Difluoro-4-(4-hydroxyphenyl)piperidin-1-yl)-1-(2-methylbenzyl)pyrrolidin-2-one]"
6,59,"Cc1ccccc1CN1CCC(N2CCC(c3ccc(O)cc3)C(F)(F)C2)C1=O (centres unmarked) [Example 92, 3-(3,3-Difluoro-4-(4-hydroxyphenyl)piperidin-1-yl)-1-(2-methylbenzyl)pyrrolidin-2-one]"
7,11,"O=C1[C@H](N2CC[C@@H](c3ccc(O)cc3)[C@H](F)C2)CCN1Cc1ccc(F)cc1 [Example 48, P-3]"
8,6.5,"O=C1[C@H](N2CC[C@@H](c3ccc(O)cc3)[C@H](F)C2)CCN1Cc1ccc(Cl)c(F)c1 [Example 67, (R)-1-(4-Chloro-3-fluorobenzyl)-3-((3S,4S)-3-fluoro-4-(4-hydroxyphenyl)piperidin-1-yl)pyrrolidin-2-one]"
9,3.6,"O=C1[C@H](N2CC[C@@H](c3ccc(O)cc3)[C@H](F)C2)CCN1Cc1ccc(Cl)cc1 [Example 65, (R)-1-(4-Chlorobenzyl)-3-((3S,4S)-3-fluoro-4-(4-hydroxyphenyl)piperidin-1-yl)pyrrolidin-2-one]"
10,3.5,"O=C1[C@H](N2CC[C@@H](c3ccc(O)cc3)[C@H](F)C2)CCN1Cc1ccc(C(F)F)cc1 [Example 114, P-1, (R)-1-(4-(difluoromethyl)benzyl)-3-((3S,4S)-3-fluoro-4-(4-hydroxyphenyl)piperidin-1-yl)pyrrolidin-2-one]"
11,2.9,"O=C1[C@H](N2CC[C@@H](c3ccc(O)c(F)c3)[C@H](F)C2)CCN1Cc1ccc(C(F)F)cc1 [Example 117, P-2, (R)-1-(4-(difluoromethyl)benzyl)-3-((3S,4S)-3-fluoro-4-(3-fluoro-4-hydroxyphenyl)piperidin-1-yl)pyrrolidin-2-one]"
12,2.5,"Cc1ccc(CN2CC[C@@H](N3CC[C@H](c4ccc(O)c(F)c4)[C@@H](F)C3)C2=O)cc1F [Example 45, P-4, (R)-3-((3R,4R)-3-fluoro-4-(3-fluoro-4-hydroxyphenyl)piperidin-1-yl)-1-(3-fluoro-4-methylbenzyl)pyrrolidin-2-one]"

# — patent US9221796B2, “Selective NR2B antagonists” (BRISTOL-MYERS SQUIBB COMPANY, priority 2014, dated 2015)
